Molecular target: T1, MCRA (myosin-cross-reactive antigen; FAD-dependent fatty acid hydratase) (Bifidobacterium breve, UniProt F1CWI2)
T1 construct: 1878 bp gene), N-terminal 6x His tag, pET28 (pBBI2), E. coli BL21 Star, HisTrap purified, ~66 kDa on SDS-PAGE; primers begin at MYYSSGNYE
T1 sequence (F1CWI2 1-625): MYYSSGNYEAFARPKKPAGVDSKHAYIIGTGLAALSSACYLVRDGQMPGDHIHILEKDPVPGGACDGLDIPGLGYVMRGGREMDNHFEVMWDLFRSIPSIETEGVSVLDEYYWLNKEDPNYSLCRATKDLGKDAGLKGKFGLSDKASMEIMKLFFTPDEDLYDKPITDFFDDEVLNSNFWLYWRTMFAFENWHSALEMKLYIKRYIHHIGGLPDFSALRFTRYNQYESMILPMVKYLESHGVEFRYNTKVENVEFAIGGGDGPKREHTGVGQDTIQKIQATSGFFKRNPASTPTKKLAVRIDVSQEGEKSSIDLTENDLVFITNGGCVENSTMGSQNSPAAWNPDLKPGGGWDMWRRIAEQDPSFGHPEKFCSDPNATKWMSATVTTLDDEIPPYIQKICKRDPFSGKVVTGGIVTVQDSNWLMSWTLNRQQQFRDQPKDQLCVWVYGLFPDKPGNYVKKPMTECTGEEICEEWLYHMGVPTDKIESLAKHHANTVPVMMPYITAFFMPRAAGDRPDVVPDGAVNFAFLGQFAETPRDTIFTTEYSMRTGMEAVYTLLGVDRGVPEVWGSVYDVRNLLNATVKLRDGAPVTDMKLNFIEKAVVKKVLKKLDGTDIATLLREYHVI
Test: UV-Vis absorption spectrum of purified protein and of supernatant after heat denaturation
Assay type: binding
Details: non-covalent, co-purified; flavin-like maxima ~450 and 370 nm; FAD identity rests on spectrum and analogy to S. pyogenes MCRA (FMN also run as reference)

Cc1cc2nc3c(=O)[nH]c(=O)nc-3n(C[C@H](O)[C@H](O)[C@H](O)COP(=O)(O)OP(=O)(O)OC[C@H]3O[C@@H](n4cnc5c(N)ncnc54)[C@H](O)[C@@H]3O)c2cc1C [FAD]
UV-Vis absorption spectrum of purified protein and of supernatant after heat den: flavin cofactor is released in the solution upon protein denaturation by heat

Reference: publication PMC3063827, “Myosin-cross-reactive antigen (MCRA) protein from Bifidobacterium breve is a FAD-dependent fatty acid hydratase which has a function in stress protection” (BMC Biochemistry, 2011)
